{"source": "ChEMBL document CHEMBL4616639", "about": "“Simplistic perylene-related compounds as inhibitors of tick-borne encephalitis virus reproduction” (Bioorg Med Chem Lett, 2020)", "key": {"[1]": {"tested_on": "Tick-borne encephalitis virus", "test": "microbe, parasite or virus in culture", "type": "functional, organism-based", "conditions": "PEK"}, "[2]": {"test": "Cytotoxicity against porcine PEK cells assessed as reduction in cell viability after 24 hrs by microscopic method", "type": "cell-based, Sus scrofa", "conditions": "pig"}, "[3]": {"test": "Cytotoxicity against porcine PEK cells assessed as reduction in cell viability after 7 days by microscopic method", "type": "cell-based, Sus scrofa", "conditions": "pig"}, "[4]": {"test": "Selectivity index, ratio of CC50 for porcine PEK cells assessed as reduction in cell viability after 24 hrs by microscopic method to EC50 for TBEV Absettarov infected in porcine PEK cells assessed as plaque reduction preincubated for 1 hr followed by overlaying with 1.26% methylcellulose and measured after 6 days by gentian violet staining-based assay", "type": "toxicity", "conditions": "pig, read-out: Ratio CC50/EC50"}}}
{"smiles": "OC[C@H]1O[C@@H](n2cnc3c(NCc4c5ccccc5cc5ccccc45)ncnc32)[C@H](O)[C@@H]1O", "values": [{"measurement": "EC50", "setting": "[1]", "value": 22, "unit": "µM"}, {"measurement": "CC50 at 24 h", "setting": "[2]", "value": "> 50", "unit": "µM"}, {"measurement": "CC50 at 168 h", "setting": "[3]", "value": "> 50", "unit": "µM"}]}
{"smiles": "O=C(O)c1ccc(-c2ccc3c4cccc5cccc(c6cccc2c63)c54)s1", "values": [{"measurement": "EC50", "setting": "[1]", "value": 0.0016, "unit": "µM"}, {"measurement": "selectivity ratio at 24 h", "setting": "[4]", "value": "> 30000"}, {"measurement": "CC50 at 24 h", "setting": "[2]", "value": "> 70", "unit": "µM"}, {"measurement": "CC50 at 168 h", "setting": "[3]", "value": 26, "unit": "µM"}]}
{"smiles": "CO[C@@H]1[C@H](O)[C@@H](CO)O[C@H]1n1cc(C#Cc2ccc3c4cccc5cccc(c6cccc2c63)c54)c(=O)[nH]c1=O", "values": [{"measurement": "EC50", "setting": "[1]", "value": 0.006, "unit": "µM"}, {"measurement": "CC50 at 24 h", "setting": "[2]", "value": "> 50", "unit": "µM"}, {"measurement": "CC50 at 168 h", "setting": "[3]", "value": 38, "unit": "µM"}]}
{"smiles": "O=C(O)c1ccc2c3cccc4cccc(c5cccc1c52)c43", "values": [{"measurement": "EC50", "setting": "[1]", "value": 0.037, "unit": "µM"}, {"measurement": "CC50 at 24 h", "setting": "[2]", "value": "> 50", "unit": "µM"}, {"measurement": "CC50 at 168 h", "setting": "[3]", "value": 37, "unit": "µM"}]}
{"smiles": "O=c1[nH]c(=O)n([C@@H]2O[C@H](CO)[C@@H](O)[C@H]2O)cc1C#Cc1ccc2c3cccc4cccc(c5cccc1c52)c43", "values": [{"measurement": "EC50", "setting": "[1]", "value": 0.0077, "unit": "µM"}, {"measurement": "CC50 at 24 h", "setting": "[2]", "value": "> 100", "unit": "µM"}, {"measurement": "CC50 at 168 h", "setting": "[3]", "value": "> 100", "unit": "µM"}]}
{"smiles": "Cc1cc(O)c2c3c4c(cc(O)c13)C(C)(C)C(=O)c1c(O)cc(O)c(c1-4)C2=O", "note": "[HELIOMYCIN]", "values": [{"measurement": "EC50", "setting": "[1]", "value": 0.15, "unit": "µM"}, {"measurement": "CC50 at 24 h", "setting": "[2]", "value": 3.7, "unit": "µM"}, {"measurement": "CC50 at 168 h", "setting": "[3]", "value": 3.7, "unit": "µM"}]}
{"smiles": "CC(=O)Nc1ccc(C#Cc2ccc3c4cccc5cccc(c6cccc2c63)c54)cc1", "values": [{"measurement": "EC50", "setting": "[1]", "value": 0.089, "unit": "µM"}, {"measurement": "CC50 at 24 h", "setting": "[2]", "value": "> 100", "unit": "µM"}, {"measurement": "CC50 at 168 h", "setting": "[3]", "value": "> 100", "unit": "µM"}]}
{"smiles": "O=c1[nH]cc(C#Cc2ccc3c4cccc5cccc(c6cccc2c63)c54)c(=O)[nH]1", "values": [{"measurement": "EC50", "setting": "[1]", "value": 0.008, "unit": "µM"}, {"measurement": "CC50 at 24 h", "setting": "[2]", "value": "> 100", "unit": "µM"}, {"measurement": "CC50 at 168 h", "setting": "[3]", "value": 37, "unit": "µM"}]}
{"smiles": "CCCCNC(=O)c1ccc(-c2ccc3c4cccc5cccc(c6cccc2c63)c54)s1", "values": [{"measurement": "EC50", "setting": "[1]", "value": 0.0039, "unit": "µM"}, {"measurement": "CC50 at 24 h", "setting": "[2]", "value": "> 100", "unit": "µM"}, {"measurement": "CC50 at 168 h", "setting": "[3]", "value": "> 100", "unit": "µM"}]}
{"smiles": "O=C(NCCCCO)c1ccc(-c2ccc3c4cccc5cccc(c6cccc2c63)c54)s1", "values": [{"measurement": "EC50", "setting": "[1]", "value": 0.009, "unit": "µM"}, {"measurement": "CC50 at 24 h", "setting": "[2]", "value": "> 70", "unit": "µM"}, {"measurement": "CC50 at 168 h", "setting": "[3]", "value": "> 70", "unit": "µM"}]}
{"smiles": "O=c1[nH]c(=O)n([C@@H]2O[C@H](CO)[C@@H](O)[C@@H]2O)cc1C#Cc1ccc2c3cccc4cccc(c5cccc1c52)c43", "values": [{"measurement": "CC50 at 24 h", "setting": "[2]", "value": "> 50", "unit": "µM"}, {"measurement": "CC50 at 168 h", "setting": "[3]", "value": "> 50", "unit": "µM"}]}
{"smiles": "CN(C)c1ccc(C#Cc2ccc3c4cccc5cccc(c6cccc2c63)c54)cc1", "values": [{"measurement": "EC50", "setting": "[1]", "value": 0.025, "unit": "µM"}, {"measurement": "CC50 at 24 h", "setting": "[2]", "value": "> 100", "unit": "µM"}, {"measurement": "CC50 at 168 h", "setting": "[3]", "value": "> 100", "unit": "µM"}]}
{"smiles": "O=C(c1ccc(-c2ccc3c4cccc5cccc(c6cccc2c63)c54)s1)N(CCO)CCO", "values": [{"measurement": "EC50", "setting": "[1]", "value": 0.015, "unit": "µM"}, {"measurement": "CC50 at 24 h", "setting": "[2]", "value": "> 70", "unit": "µM"}, {"measurement": "CC50 at 168 h", "setting": "[3]", "value": "> 70", "unit": "µM"}]}
